Zone of inhibition data for one compound are collected here from patent US11160839B2, “Pediococcus pentosaceus CCFM1012 and application thereof to preparation of Campylobacter jejuni infection antagonism medicine” (Jiangnan University, priority 2018, dated 2021).

For this test, the system named is C. jejuni NCTC11168. The experiment in a line: Oxford cup inhibition zone test of lactic acid bacteria fermented supernate on Columbia blood agar. The conditions noted are these: Campylobacter jejuni, positive control 0.30 mg/mL, 48 h at 37° C., read-out: Diameter of inhibition zone. Format: cell-based.

Usually zone of inhibition stands for the size of the clear area around the sample on an inoculated plate. As for `CCn1cc(C(=O)O)c(=O)c2cc(F)c(N3CCNCC3)cc21` [norfloxacin], the zone of inhibition at 300 µg/mL turned out to be 19.7 ± 0.83 mm.
